Test results taken from patent publication US8309550B2, “Kinase inhibitors and their use as pharmaceutical agents” (Shanghai Genomics, Inc., priority 2011, dated 2012).
Like-named read-outs stand apart in the source and are kept apart here.

Tests used:
Molt-4-luc = assay: 72 h MTT cytotoxicity assay Molt-4-luc; format: cell-based; details: Homo sapiens
Text: (§1) MIT cytotoxicity assay. The compounds of the invention were subjected to a standard cellular proliferation assay using human cell lines. HeLa cells (Human cervix adenocarcinoma cell line, ATCC NO, CCL-2); A549 cells (Human lung carcinoma cells line, ATCC NO, CCL-185); U2OS cells (Human osteosarcoma cell line, ATCC NO, HTB-96); Eca-109 cells (Human esophageal carcinoma cell line); HepG2 (Human hepatocellular liver carcinoma cell line, ATCC NO, HB-8065); K562 cells (Human chronic myelogenous leukemia cell line, ATCC NO, CCL-243); SK-MEL-28 (Human malignant melanoma cell line, ATCC NO, HTB-72); Molt-4 (Human acute lymphoblastic leukemia cell line, ATCC NO, CRL-1582); H460 (Human large cell lung cancer cell line, ATCC NO, HTB-177); MDA-MB-231 (Human breast adenocarcinoma cell line, ATCC NO, HTB-26); MCF7 (Human breast adenocarcinoma cell line, ATCC NO, HTB-22); ACHN (Human renal cell adenocarcinoma cell line, ATCC NO, CRL-1611); PC-3M (Human prostate adenocarcinoma cell line, ATCC NO CRL-1435); HL60 (Human acute promyelocytic leukemia cell line, ATCC NO, CCL-240); THP-1 (Human acute monocytic leukemia, ATCC NO, TIB-202); Jurkat (Human acute T cell leukemia cell line, ATCC NO, CRL-2063); HCT-116 (Human colorectal carcinoma cell line, ATCC NO, CCL-247); HT-29 (Human colorectal adenocarcinoma cell line, ATCC NO, HTB-38™); WI-38 (Human normal lung cell line, ATCC NO, CCL-75); MRC-5 (Human normal lung cell line, ATCC NO, CCL-171).
(§2) HepG2, MDA-MB-231, WI-38 and MRC-5 cells were obtained from Shanghai Institute of Cell Biology, Chinese Academy of Sciences (Shanghai 200031, China). A549, HeLa, K562, MCF7, ACHN, H460, U2OS, Eca-109, MCF7, HL60, THP-1, Jurkat, HCT-116, HT-29, PC-3M, SK-MEL-28, Molt-4, H460 and […] cells were purchased from ATCC (American Type Culture Collection, USA).
(§3) Standard 72 h MTT (thiazolye blue; 3-[4,5-dimethylthiazol-2-yl]-2,5-diphenyltetrazolium bromide) assays were performed. Briefly, the cell lines used in this study were recovered and cultured according to the conditions recommended. 4000 cells per well were seeded into 96-well plates according to doubling time and incubated overnight at 37° C. Compounds were prepared in DMSO and a ½ dilution series in 100 μl cell culture media, added to cells (in duplicates) with the final DMSO concentration of 0.025%, and incubated for 72 hrs at 37° C. MTT solution (5 mg/ml) was added at 10 μl per well and incubated in the dark at 37° C. for 4 hr. Culture medium and MTT solution was removed. MTT dye was solubilised with 100 μl per well of DMSO with agitation. Absorbance was read at 562 nm and data analyzed using Sigmoid curve-fitting software Origin 6.0 (MicroCal, LLC, USA) to determine IC50 value.

HepG2 = assay: 72 h MTT cytotoxicity assay HepG2; format: cell-based; details: Homo sapiens; HepG2, 72 hrs
Text: as §1, §2, §3

CDK1/cyclinB = target: T1, CDK1/cyclinB (Homo sapiens, UniProt P06493); assay: Z'-LYTE kinase assay CDK1/cyclinB; format: biochemical
T1 construct: purchased Invitrogen PV3292
Procedure: (§4) Kinase assays. The compounds from the example above were tested for their ability to inhibit kinases. Recombinant human CDK2/cyclinA (PV3267), CDK1/cyclinB (PV3292), CDK5/p35 (PV3000) and Aurora A (PV3612) were purchased from Invitrogen (Carlsbad, Calif., USA). Kinase dosage and Z′-LYTE™ substrate for each kinase assay is as follows: CDK2/cyclinA-8 ng/reaction, Ser/Thr 12 Peptide; CDK1/cyclinB-0.8 ng/reaction, Ser/Thr 12 Peptide, CDK5/p35-0.8 ng/reaction, Ser/Thr 12 Peptide, and Aurora A-16 ng/reaction, Ser/Thr 1 Peptide. All enzymatic assays were performed using Z′-LYTE™ Kinase Assay Kits and were carried out following protocols provided by Invitrogen. To prepare stock solutions, compounds were dissolved at 10 mM in 100% DMSO and stored at 4° C. in amber glass vials. Enzyme reactions were initiated by adding recombinant enzyme and Z′-LYTE™ Ser/Thr peptide substrate and ATP mixture to 384-well plates containing diluted test compounds. Kinase and corresponding peptide substrate were incubated for 1 hr at room temperature in the presence of varying amounts of test compound with reaction buffer (20 μM ATP, […] [pH 7.5], 5 mM MgCl2, 0.5 mM EGTA, 0.005% Brij-35). Development buffer was added and incubated for another one hour at room temperature. Reactions were terminated by addition of stop buffer, and fluorescence emission intensity ratio 445 nm/520 nm (excited at 400 nm) was quantified by VICTOR-3 Multilabel Reader (Perkin-Elmer, Waltham, Mass., USA). Phosphorylation was calculated from the emission ratio. IC50 was determined using Sigmoid curve-fitting software Origin 6.0 (MicroCal, LLC, Northampton, Mass., USA).

THP-1 = assay: 72 h MTT cell viability THP-1; format: cell-based; details: Homo sapiens, THP-1; read-out: Cell Viability IC50 THP-1
Text: as §1, §2, §3

CDK5/p35 = target: T2, CDK5/p35 (Homo sapiens, UniProt Q00535); assay: Z'-LYTE kinase assay CDK5/p35; format: biochemical
T2 construct: purchased Invitrogen PV3000
Procedure: as §4

SK-MEL-28-luc = assay: 72 h MTT cytotoxicity assay SK-MEL-28-luc; format: cell-based; details: Homo sapiens
Text: as §1, §2, §3

Aurora A = target: T3, Aurora A (Homo sapiens, UniProt O14965); assay: Z'-LYTE kinase assay Aurora A; format: biochemical
T3 construct: purchased Invitrogen PV3612
T3 sequence (O14965 1-403): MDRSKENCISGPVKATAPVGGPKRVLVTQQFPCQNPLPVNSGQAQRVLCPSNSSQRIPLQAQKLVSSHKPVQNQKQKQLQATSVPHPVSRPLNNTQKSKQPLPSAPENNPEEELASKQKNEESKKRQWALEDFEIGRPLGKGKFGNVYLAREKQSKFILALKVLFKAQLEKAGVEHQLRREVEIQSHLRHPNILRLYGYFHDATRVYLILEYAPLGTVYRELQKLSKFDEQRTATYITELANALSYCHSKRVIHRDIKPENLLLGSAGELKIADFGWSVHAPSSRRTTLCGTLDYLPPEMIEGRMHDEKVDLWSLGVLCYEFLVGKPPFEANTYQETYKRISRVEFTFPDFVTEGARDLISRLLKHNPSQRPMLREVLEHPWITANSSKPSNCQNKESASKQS
Procedure: as §4

Eca-109 cells = assay: 72 h MTT cytotoxicity assay Eca-109; format: cell-based; details: Homo sapiens; Eca-109, 72 hrs
Text: as §1, §2, §3

ACHN-luc = assay: 72 h MTT cell viability ACHN-luc; format: cell-based; details: Homo sapiens
Text: as §1, §2, §3

WI-38 = assay: 72 h MTT cell viability WI-38 (normal lung); format: cell-based; details: Homo sapiens; WI-38, normal lung cell line
Text: as §1, §2, §3

HL-60 = assay: 72 h MTT cell viability HL-60; format: cell-based; details: Homo sapiens
Text: as §1, §2, §3

MDA-MB-231-luc = assay: 72 h MTT cell viability MDA-MB-231-luc; format: cell-based; details: Homo sapiens
Text: as §1, §2, §3

PC-3M-luc = assay: 72 h MTT cell viability PC-3M-luc; format: cell-based; details: Homo sapiens
Text: as §1, §2, §3

U2OS cells = assay: 72 h MTT cytotoxicity assay U2OS; format: cell-based; details: Homo sapiens
Text: as §1, §2, §3

CDK2/cyclinA = target: T4, CDK2/cyclinA (Homo sapiens, UniProt P24941); assay: Z'-LYTE kinase assay CDK2/cyclinA; format: biochemical
T4 construct: purchased Invitrogen PV3267
Procedure: as §4

H460-luc = assay: 72 h MTT cytotoxicity assay H460-luc; format: cell-based; details: Homo sapiens, NCI-H460-Luc; H460-luc, 72 hrs; read-out: Cytotoxicity, MTT 72 hrs, IC50 H460-luc
Text: as §1, §2, §3

A549 cells = assay: 72 h MTT cytotoxicity assay A549; format: cell-based; details: Homo sapiens; A549, 72 hrs
Text: as §1, §2, §3

CDK9T1 = CDK9T1 (Homo sapiens, UniProt P50750); assay: Kinase assay CDK9T1 (Table I); format: biochemical; details: read-out: Kinase inhibition, IC50 CDK9T1
Procedure: [The source words this procedure for another target and reports this target under the same test.] as §4

HeLa cells = assay: 72 h MTT cytotoxicity assay HeLa; format: cell-based; details: Homo sapiens
Text: as §1, §2, §3

Aurora B = Aurora B (Homo sapiens, UniProt Q96GD4); assay: Kinase assay Aurora B (Table I); format: biochemical
Procedure: [The source words this procedure for another target and reports this target under the same test.] as §4

K562 cells = assay: 72 h MTT cytotoxicity assay K562; format: cell-based; details: Homo sapiens; K562, 72 hrs
Text: as §1, §2, §3

MCF7 = assay: 72 h MTT cytotoxicity assay MCF7; format: cell-based; details: Homo sapiens; MCF7, 72 hrs
Text: as §1, §2, §3

CDK7 = CDK7 (Homo sapiens, UniProt P50613); assay: Kinase assay CDK7 (Table III); details: read-out: Target biochemical activity IC50 CDK7
Procedure: (§5) Kinase assays. The compounds were tested for their ability to inhibit kinases.

CDK9 = CDK9 (Homo sapiens, UniProt P50750); assay: CDK9 inhibitory activity, kinase assays (Table III); details: read-out: Target biochemical activity IC50 CDK9
Procedure: as §5

TSSK1 = target: T5, TSSK1 (Homo sapiens, UniProt Q9BXA7); assay: Kinase assay TSSK1 (Table III); details: read-out: Target biochemical activity IC50 TSSK1
T5 sequence (Q9BXA7 1-367): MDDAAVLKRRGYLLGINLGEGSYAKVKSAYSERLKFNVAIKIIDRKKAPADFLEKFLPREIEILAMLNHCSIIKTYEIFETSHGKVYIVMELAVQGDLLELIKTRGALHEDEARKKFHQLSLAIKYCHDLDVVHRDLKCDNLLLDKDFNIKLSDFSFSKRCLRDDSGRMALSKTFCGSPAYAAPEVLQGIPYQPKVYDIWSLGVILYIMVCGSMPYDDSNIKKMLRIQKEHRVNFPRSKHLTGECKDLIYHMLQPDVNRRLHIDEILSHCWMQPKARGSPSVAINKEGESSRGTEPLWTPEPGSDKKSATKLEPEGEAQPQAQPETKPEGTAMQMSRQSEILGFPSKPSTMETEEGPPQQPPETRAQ
Procedure: as §5

SRC = SRC (Homo sapiens, UniProt P12931); assay: Kinase assay SRC (Table III); details: read-out: Target biochemical activity IC50 SRC
Procedure: as §5

[1] = read-out: Kinase inhibition, IC50 CDK1B
[2] = read-out: Kinase inhibition, IC50 CDK5/p35
[3] = read-out: Kinase inhibition, IC50 Aurora A
[4] = read-out: Kinase inhibition, IC50 CDK2A

T1 sequence (P06493 whole entry): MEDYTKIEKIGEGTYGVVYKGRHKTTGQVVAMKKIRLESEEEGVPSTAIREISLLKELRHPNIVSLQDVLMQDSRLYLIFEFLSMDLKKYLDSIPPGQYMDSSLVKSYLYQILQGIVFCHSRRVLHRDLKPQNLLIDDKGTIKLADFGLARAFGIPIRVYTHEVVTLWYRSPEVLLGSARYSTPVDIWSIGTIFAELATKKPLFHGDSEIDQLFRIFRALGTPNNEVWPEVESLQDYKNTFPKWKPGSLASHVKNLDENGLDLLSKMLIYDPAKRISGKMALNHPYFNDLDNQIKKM
T1 sequence (P14635 whole entry partner): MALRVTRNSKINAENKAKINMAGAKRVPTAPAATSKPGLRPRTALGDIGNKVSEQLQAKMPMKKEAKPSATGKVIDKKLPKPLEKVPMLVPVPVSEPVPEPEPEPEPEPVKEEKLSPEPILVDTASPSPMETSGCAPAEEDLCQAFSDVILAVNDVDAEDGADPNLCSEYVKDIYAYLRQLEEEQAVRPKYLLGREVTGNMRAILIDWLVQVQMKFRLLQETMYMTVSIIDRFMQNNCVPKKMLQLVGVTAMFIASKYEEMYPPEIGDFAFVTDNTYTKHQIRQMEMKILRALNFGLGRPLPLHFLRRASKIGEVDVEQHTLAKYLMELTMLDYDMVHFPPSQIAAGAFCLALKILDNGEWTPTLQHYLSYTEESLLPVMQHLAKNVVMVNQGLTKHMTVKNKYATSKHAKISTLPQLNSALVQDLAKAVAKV
T2 sequence (Q00535 whole entry): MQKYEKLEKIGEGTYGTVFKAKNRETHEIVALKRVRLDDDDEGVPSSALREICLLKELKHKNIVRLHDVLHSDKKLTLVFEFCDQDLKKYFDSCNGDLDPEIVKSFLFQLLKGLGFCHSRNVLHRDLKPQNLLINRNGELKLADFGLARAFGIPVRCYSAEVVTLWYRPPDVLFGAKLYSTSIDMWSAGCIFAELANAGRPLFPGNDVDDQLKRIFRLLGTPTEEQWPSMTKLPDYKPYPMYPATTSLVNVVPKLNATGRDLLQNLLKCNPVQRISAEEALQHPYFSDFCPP
T2 sequence (Q15078 whole entry partner): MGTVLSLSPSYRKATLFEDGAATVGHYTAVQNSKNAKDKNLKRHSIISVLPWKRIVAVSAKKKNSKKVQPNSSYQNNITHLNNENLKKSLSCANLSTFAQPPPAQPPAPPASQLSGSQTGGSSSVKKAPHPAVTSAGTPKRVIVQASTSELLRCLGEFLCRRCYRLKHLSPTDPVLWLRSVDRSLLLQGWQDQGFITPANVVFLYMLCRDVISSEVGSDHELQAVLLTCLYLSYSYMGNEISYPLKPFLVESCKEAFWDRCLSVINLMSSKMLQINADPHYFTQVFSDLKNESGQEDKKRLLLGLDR
Sequence of CDK9T1 (P50750 whole entry): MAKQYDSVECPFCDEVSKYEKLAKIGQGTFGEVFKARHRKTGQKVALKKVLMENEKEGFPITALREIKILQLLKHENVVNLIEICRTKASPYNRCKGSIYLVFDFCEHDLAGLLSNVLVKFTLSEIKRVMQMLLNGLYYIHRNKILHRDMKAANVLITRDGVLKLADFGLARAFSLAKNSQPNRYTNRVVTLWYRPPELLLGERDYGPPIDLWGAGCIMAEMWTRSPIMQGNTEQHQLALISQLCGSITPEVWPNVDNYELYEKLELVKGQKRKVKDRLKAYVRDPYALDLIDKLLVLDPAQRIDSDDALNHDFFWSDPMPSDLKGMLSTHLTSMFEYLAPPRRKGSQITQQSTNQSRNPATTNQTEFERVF
Sequence of CDK9T1 (O60563 whole entry partner): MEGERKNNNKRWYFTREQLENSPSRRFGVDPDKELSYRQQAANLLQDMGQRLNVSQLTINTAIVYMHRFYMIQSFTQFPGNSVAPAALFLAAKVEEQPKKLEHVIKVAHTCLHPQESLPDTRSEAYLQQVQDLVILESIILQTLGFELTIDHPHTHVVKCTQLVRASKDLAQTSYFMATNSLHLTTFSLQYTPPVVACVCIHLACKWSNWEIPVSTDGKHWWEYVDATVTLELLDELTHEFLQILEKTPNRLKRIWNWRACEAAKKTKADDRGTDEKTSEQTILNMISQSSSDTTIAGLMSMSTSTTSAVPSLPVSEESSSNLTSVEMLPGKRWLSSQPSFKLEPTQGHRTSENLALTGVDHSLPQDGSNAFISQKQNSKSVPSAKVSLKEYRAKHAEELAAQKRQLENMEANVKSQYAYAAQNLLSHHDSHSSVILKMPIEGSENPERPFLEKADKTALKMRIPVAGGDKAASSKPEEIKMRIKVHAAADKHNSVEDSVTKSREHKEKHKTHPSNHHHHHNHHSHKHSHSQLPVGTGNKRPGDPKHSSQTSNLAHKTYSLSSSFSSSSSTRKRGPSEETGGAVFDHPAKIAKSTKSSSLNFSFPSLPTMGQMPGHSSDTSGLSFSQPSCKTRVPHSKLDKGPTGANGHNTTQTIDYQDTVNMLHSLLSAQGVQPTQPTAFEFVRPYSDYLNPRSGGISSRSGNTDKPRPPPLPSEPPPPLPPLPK
Sequence of Aurora B (Q96GD4 whole entry): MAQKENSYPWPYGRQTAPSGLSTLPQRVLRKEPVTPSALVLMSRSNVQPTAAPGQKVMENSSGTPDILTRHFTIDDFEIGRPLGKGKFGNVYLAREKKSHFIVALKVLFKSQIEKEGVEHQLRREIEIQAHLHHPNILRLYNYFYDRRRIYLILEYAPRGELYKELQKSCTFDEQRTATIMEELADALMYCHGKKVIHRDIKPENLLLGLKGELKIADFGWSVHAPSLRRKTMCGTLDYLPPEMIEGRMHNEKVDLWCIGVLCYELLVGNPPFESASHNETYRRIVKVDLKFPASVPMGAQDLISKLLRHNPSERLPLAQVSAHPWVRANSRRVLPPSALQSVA
Sequence of CDK7 (P50613 whole entry, species assumed): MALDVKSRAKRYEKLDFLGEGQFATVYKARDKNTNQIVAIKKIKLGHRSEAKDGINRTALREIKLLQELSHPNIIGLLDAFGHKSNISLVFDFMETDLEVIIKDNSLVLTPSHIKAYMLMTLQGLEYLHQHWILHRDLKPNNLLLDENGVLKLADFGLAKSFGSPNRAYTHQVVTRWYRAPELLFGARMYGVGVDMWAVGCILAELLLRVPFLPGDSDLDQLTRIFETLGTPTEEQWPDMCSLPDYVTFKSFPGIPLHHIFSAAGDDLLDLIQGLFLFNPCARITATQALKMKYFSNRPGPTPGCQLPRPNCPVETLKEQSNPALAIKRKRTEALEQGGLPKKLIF
Sequence of CDK7 (P51946 whole entry partner, species assumed): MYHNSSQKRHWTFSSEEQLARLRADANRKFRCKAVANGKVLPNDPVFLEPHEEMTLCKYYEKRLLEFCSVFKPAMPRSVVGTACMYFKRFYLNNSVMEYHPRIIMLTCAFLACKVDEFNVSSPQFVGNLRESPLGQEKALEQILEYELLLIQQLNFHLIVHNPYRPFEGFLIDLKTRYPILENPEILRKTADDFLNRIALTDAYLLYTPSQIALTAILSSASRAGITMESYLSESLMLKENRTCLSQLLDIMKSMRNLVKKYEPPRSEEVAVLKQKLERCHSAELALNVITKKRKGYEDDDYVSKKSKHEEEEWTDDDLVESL
Sequence of CDK7 (P51948 whole entry partner, species assumed): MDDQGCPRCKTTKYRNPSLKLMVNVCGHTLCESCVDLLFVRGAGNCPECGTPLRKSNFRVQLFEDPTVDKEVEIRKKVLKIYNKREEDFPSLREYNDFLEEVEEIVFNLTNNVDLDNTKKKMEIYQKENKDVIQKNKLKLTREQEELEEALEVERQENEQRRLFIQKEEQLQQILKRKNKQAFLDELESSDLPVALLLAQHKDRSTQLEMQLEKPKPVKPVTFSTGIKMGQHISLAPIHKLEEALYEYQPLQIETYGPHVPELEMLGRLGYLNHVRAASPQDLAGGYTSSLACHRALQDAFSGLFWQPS
Sequence of CDK9 (P50750 whole entry, species assumed): as the sequence (P50750 whole entry) above
Sequence of CDK9 (O60563 whole entry partner, species assumed): as the sequence (O60563 whole entry partner) above
Sequence of SRC (P12931 whole entry, species assumed): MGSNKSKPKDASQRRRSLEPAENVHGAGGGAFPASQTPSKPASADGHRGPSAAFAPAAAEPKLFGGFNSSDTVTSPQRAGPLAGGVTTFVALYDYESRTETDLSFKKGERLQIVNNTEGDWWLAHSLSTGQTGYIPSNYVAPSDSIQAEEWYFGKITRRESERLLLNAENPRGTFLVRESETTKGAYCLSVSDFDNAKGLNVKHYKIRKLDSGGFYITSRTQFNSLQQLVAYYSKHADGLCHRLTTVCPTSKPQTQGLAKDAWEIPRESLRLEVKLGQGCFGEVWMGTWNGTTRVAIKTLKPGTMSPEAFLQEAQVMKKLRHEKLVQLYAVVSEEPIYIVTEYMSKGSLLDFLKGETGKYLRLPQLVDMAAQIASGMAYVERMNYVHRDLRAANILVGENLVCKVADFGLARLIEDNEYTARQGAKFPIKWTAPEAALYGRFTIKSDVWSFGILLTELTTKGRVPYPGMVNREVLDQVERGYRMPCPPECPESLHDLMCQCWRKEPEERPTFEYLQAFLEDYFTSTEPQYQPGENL

| Compound | IC50 (Molt-4-luc) | IC50 (HepG2) | IC50 (CDK1/cyclinB; [1]) | IC50 (CDK5/p35; [2]) | IC50 (SK-MEL-28-luc) | IC50 (Aurora A; [3]) | IC50 (Eca-109 cells) | IC50 (ACHN-luc) | IC50 (HL-60) | IC50 (MDA-MB-231-luc) | IC50 (PC-3M-luc) | IC50 (U2OS cells) | IC50 (CDK2/cyclinA; [4]) | IC50 (H460-luc) | IC50 (A549 cells) | IC50 (CDK9T1) | also measured |
| --- | --- | --- | --- | --- | --- | --- | --- | --- | --- | --- | --- | --- | --- | --- | --- | --- | --- |
| CCn1cc(-c2ccnc(Nc3cccc(S(N)(=O)=O)c3)n2)c2ccnc(Cl)c21 [Compound 73, 3-(4-(7-Chloro-1-ethyl-1H-pyrrolo[2,3-c]pyridin-3-yl)pyrimidin-2-ylamino)benzenesulfonamide] | 430 nM | 180 nM | 180 nM | 190 nM | 490 nM | 1280 nM | > 10000 nM | 510 nM | 430 nM | 440 nM | 890 nM | 410 nM | 3.8 nM | 315 nM | 370 nM | 24 nM | IC50 (THP-1): 2740 nM; IC50 (WI-38): > 10000 nM |
| CCCn1cc(-c2ccnc(Nc3ccc(S(N)(=O)=O)cc3)n2)c2nc(Cl)cc(C)c21 [Compound 39, 4-(4-(5-Chloro-7-methyl-1-propyl-1H-pyrrolo[3,2-b]pyridin-3-yl)pyrimidin-2-ylamino)benzenesulfonamide] | 5250 nM | 100 nM | > 10000 nM | > 10000 nM | 3410 nM | 620 nM | 3700 nM | 13700 nM | 1270 nM | 2030 nM | > 10000 nM | 1260 nM | 1670 nM | 1030 nM | 420 nM | 57 nM | IC50 (HeLa cells): 3300 nM; IC50 (Aurora B; read-out: Kinase inhibition, IC50 Aurora B): 320 nM; IC50 (K562 cells): 4720 nM; IC50 (MCF7): > 10000 nM |
| CCn1cc(-c2ccnc(Nc3ccc(O)cc3)n2)c2ccnc(Cl)c21 [SG49] | – | – | – | – | – | – | – | – | – | – | – | – | – | – | – | – | IC50 (CDK7): > 10000 nM; IC50 (CDK1/cyclinB; Table III, read-out: Target biochemical activity IC50 CDK1): 190 nM; IC50 (CDK5/p35; Table III, read-out: Target biochemical activity IC50 CDK5): 350 nM; IC50 (CDK9): 95 nM; IC50 (Aurora A; Table III, read-out: Target biochemical activity IC50 Aurora A): 2460 nM; IC50 (TSSK1): 1490 nM; IC50 (Aurora B; Table III, read-out: Target biochemical activity IC50 Aurora B): > 10000 nM; IC50 (SRC): 4560 nM; IC50 (CDK2/cyclinA; Table III, read-out: Target biochemical activity IC50 CDK2): 16 nM |
